How the values were obtained:
[1] = In vitro sorption-desorption properties of moisturizers (weight increase vs relative atmospheric humidity); assay type: physicochemical; details: 24 h each; for ability to absorb water as the atmospheric humidity increases: 20% to 80% r.h. in 10% stages; for ability to store/hold the absorbed water as the atmospheric humidity decreases (hysteresis behavior): 80% r.h. reduced in 10% stages
Description: In order to determine the in vitro sorption-desorption properties of moisturizers, these were firstly dried overnight at 80° C. and 0% relative humidity (r.h.) and then cooled to room temperature in a desiccator. 4-5 g of the moisturizer substance were then placed into a Petri dish and stored for 24 h at 20% rh. The weight increase was recorded and the atmospheric humidity was then increased by 10%. After 24 h, the weight of the moisturizer was monitored again. This was repeated in stages to an atmospheric humidity of 80%. The atmospheric humidity was then reduced again every 24 h in 10% stages and the weight decrease was recorded.

skin = test: Corneometry, skin moisture before and after single application of test formulation; assay type: in vivo, subjects; details: single application in O/W cream, contact time two hours; concentration as in 10% active ingredient combination 1
Description: Corneometry is a noninvasive method which permits conclusions relating to the skin moisture on the basis of changes in the physical parameters within the stratum corneum. In practice, 12 to 15 subjects are recruited whose skin moisture is measured before and after single application of the test formulations using a HM99 corneometer (Courage & Khazaka, Cologne, Germany) according to the manufacturer's instructions.
After climatization of the subjects over 15 minutes under defined conditions of 22° C. and 55% relative humidity, the skin hydration is determined corneometrically and afterwards 50 mg of the test formulation are applied to a skin area each with a diameter of 2.5 cm, and after […] any residues of the formulation are removed.
After a contact time of two hours, the skin hydration is measured again following climatization of 15 minutes (22° C., 55% rel. humidity). An increase of the relative corneometer units CU correlates directly with improved skin hydration.
The concentrations of the individual substances were chosen so that they correspond to the concentration in 10% active ingredient combination 1.

Row | ability to absorb water as the atmospheric humidity increases [1] | ability to store/hold the absorbed water as the atmospheric humidity decreases (hysteresis behavior) [1] | Compound | ΔCU, increase in the relative corneometer units compared with the blank formulation (skin) [CU]
1 | very good ability to absorb water | able to hold onto the absorbed water | C[N+](C)(C)CC(=O)[O-] [trimethylglycine, Trimethylglycine] | 3.2
2 | very good ability to absorb water | able to hold onto the absorbed water | NC(N)=O [urea, Urea] | 3.6
3 | – | – | CC(O)C(=O)[O-].[K+] (stereo not drawn) [potassium lactate, Potassium lactate] | 1.6

Row | Compound | ability to absorb water as the atmospheric humidity increases [1] | ability to store/hold the absorbed water as the atmospheric humidity decreases (hysteresis behavior) [1] | ΔCU, increase in the relative corneometer units compared with the blank formulation (skin) [CU]
4 | OCC(O)CO [glycerol, 1,2,3-propanetriol, reference compound] | absorb the largest possible amounts of water | not able to do | –
